Source: patent publication US20210369615A1, “SOLID ORAL FORMULATIONS OF AMPHOTERICIN B” (iCo Therapeutics Inc., priority 2018, published 2021)
Several values for one entry are separate records, joined by “and”; a condition that tells them apart may be missing. Identical values can stand only once.

Experiment: Phase 1 single dose escalation pharmacokinetic study, Amphotericin B in human plasma
Assay type: in vivo
Conditions: for Amphotericin B concentration: 800 mg dose
Procedure: A phase 1, randomized, double-blind, placebo-controlled, single dose escalation study was performed to evaluate the pharmacokinetic parameters after administration of a single dose of Formula 1A. 100 mg (FIG. 10A), 200 mg (FIG. 10B), 400 mg (FIG. 10C) and 800 mg (FIG. 10D) doses were investigated in this study.
For each dose, AmpB or a placebo was administered, and blood samples were obtained pre-dose, and post-dosing at 0.5 hr, 1 hr, 2 hr, 3 hr, 4 hr, 6 hr, 8 hr, 10 hr, 12 hr, 24 hr, 36 hr, 48 hr, 60 hr, 72 hr, 144 hr, and 192 hr. Pharmacokinetic analysis was performed using Phoenix™ WinNonlin® (Pharsight Corporation). Doses and sampling times were entered as provided by the sponsor. Dose normalised parameters, and descriptive statistics were calculated using Phoenix™ WinNonlin®.
Where Ct is the last measurable concentration and Kel is the elimination rate constant estimated using log-linear regression during the terminal elimination phase. • t½: Elimination half-life, determined by ln(2)/Kel • CL/f: Observed Systemic clearance, calculated as dose/AUC • Vz: Observed Volume of distribution during the terminal phase, calculated as CL/Kel

[1] = single 100 mg dose (Formula 1A), Geometric Mean, N 6
[2] = single 100 mg dose (Formula 1A), Mean, N 6
[3] = single 100 mg dose (Formula 1A), Median, N 6
[4] = single 100 mg dose (Formula 1A), individual subjects A, B, C, D, F, H
[5] = single 200 mg dose (Formula 1A), Geometric Mean, N 6
[6] = single 200 mg dose (Formula 1A), Mean, N 6
[7] = single 200 mg dose (Formula 1A), Median, N 6
[8] = single 200 mg dose (Formula 1A), individual subjects I, 3, K, M, N, P
[9] = single 400 mg dose (Formula 1A), Geometric Mean, N 6
[10] = single 400 mg dose (Formula 1A), Mean, N 6
[11] = single 400 mg dose (Formula 1A), Median, N 6
[12] = single 400 mg dose (Formula 1A), individual subjects R, S, T, U, V, W

In the case of `C[C@@H]1[C@H](O)[C@@H](C)/C=C/C=C/C=C/C=C/C=C/C=C/C=C/[C@H](O[C@@H]2O[C@H](C)[C@@H](O)[C@H](N)[C@@H]2O)C[C@@H]2O[C@](O)(C[C@@H](O)C[C@@H](O)[C@H](O)CC[C@@H](O)C[C@@H](O)CC(=O)O[C@H]1C)C[C@H](O)[C@H]2C(=O)O` [Amphotericin B], the “Amphotericin B concentration” value (nominal hour 0.5, individual subjects) is reported as “BQL”, the “Amphotericin B concentration” value (nominal hour 1, individual subjects) is reported as 0.791 ng/mL and BQL (5×) and the “Amphotericin B concentration” value (nominal hour 2, individual subjects) is reported as 7.683 ng/mL and 8.234 ng/mL and 2.414 ng/mL and 5.164 ng/mL and 3.206 ng/mL and 4.175 ng/mL. For the same compound, the “Amphotericin B concentration” value (nominal hour 4, individual subjects) was 16.397 ng/mL and 28.318 ng/mL and 18.814 ng/mL and 17.942 ng/mL and 23.486 ng/mL and 20.176 ng/mL, the “Amphotericin B concentration” value (nominal hour 6, individual subjects) was 29.902 ng/mL and 40.067 ng/mL and 30.628 ng/mL and 24.140 ng/mL and 33.962 ng/mL and 31.375 ng/mL and the “Amphotericin B concentration” value (nominal hour 8, individual subjects) was 22.535 ng/mL and 31.543 ng/mL and 30.838 ng/mL and 27.279 ng/mL and 39.722 ng/mL and 22.816 ng/mL. The “Amphotericin B concentration” value (nominal hour 10, individual subjects) was 21.595 ng/mL and 29.990 ng/mL and 25.996 ng/mL and 32.914 ng/mL and 42.805 ng/mL and 22.226 ng/mL, the “Amphotericin B concentration” value (nominal hour 12, individual subjects) was 21.001 ng/mL and 31.865 ng/mL and 22.810 ng/mL and 27.866 ng/mL and 40.021 ng/mL and 21.390 ng/mL and the “Amphotericin B concentration” value (nominal hour 24, individual subjects) was 16.218 ng/mL and 14.674 ng/mL and 23.607 ng/mL and 14.816 ng/mL and 19.124 ng/mL and 26.064 ng/mL. For the same compound, the “Amphotericin B concentration” value (nominal hour 36, individual subjects) was 10.661 ng/mL and 16.074 ng/mL and 13.715 ng/mL and 9.365 ng/mL and 12.504 ng/mL and 19.218 ng/mL, the “Amphotericin B concentration” value (nominal hour 48, individual subjects) was 6.472 ng/mL and 12.880 ng/mL and 12.291 ng/mL and 7.395 ng/mL and 8.947 ng/mL and 13.166 ng/mL and the “Amphotericin B concentration” value (nominal hour 63, individual subjects) was 6.398 ng/mL and 10.642 ng/mL and 7.859 ng/mL and 3.935 ng/mL and 6.865 ng/mL and 9.972 ng/mL. For the same compound, the “Amphotericin B concentration” value (nominal hour 72, individual subjects) was 5.044 ng/mL and 10.165 ng/mL and 6.793 ng/mL and 2.412 ng/mL and 3.808 ng/mL and 8.297 ng/mL, the “Amphotericin B concentration” value (nominal hour 144, individual subjects) was 0.539 ng/mL and 2.254 ng/mL and 1.380 ng/mL and 0.329 ng/mL and 0.518 ng/mL and 1.905 ng/mL and the “Amphotericin B concentration” value (nominal hour 192, individual subjects) was “BQL (3×) and 0.726 ng/mL and 0.132 ng/mL and 0.243 ng/mL”. For the same compound, the “Amphotericin B concentration” value (pre-dose, individual subjects) was “BQL”, the “% AUCexp” value [1] was 16.37% and the AUCO-inf [1] was 1155.07 ng·h/mL. It also gave an AUCO-t [1] of 865.75 ng·h/mL, a CL/F [1] of 86574.82 mL/h and a Cmax [1] of 29.45 ng/mL. The Kel [1] was 0.02 h⁻¹, the Tmax [1] was 6.00 h and the T½ [1] was 28.42 h. For the same compound, the V/F [1] was 3549117.10 mL, the “% AUCexp” value [2] was 23.01% and the AUCO-inf [2] was 1329.45 ng·h/mL. The AUCO-t [2] was 912.51 ng·h/mL, the CL/F [2] was 96064.72 mL/h and the Cmax [2] was 30.22 ng/mL. For the same compound, the Kel [2] was 0.03 h⁻¹, the Tmax [2] was 6.00 h and the T½ [2] was 31.80 h. The V/F [2] was 3656853.27 mL, the “% AUCexp” value [3] was 16.74% and the AUCO-inf [3] was 1029.80 ng·h/mL. For the same compound, the AUCO-t [3] was 759.65 ng·h/mL, the CL/F [3] was 102549.85 mL/h and the Cmax [3] was 28.02 ng/mL. The Kel [3] was 0.03 h⁻¹, the Tmax [3] was 6.00 h and the T½ [3] was 27.27 h. The V/F [3] was 3591414.60 mL, the “% AUCexp” value [4] was 12.17% and 44.38% and 21.32% and 9.08% and 47.20% and 3.91% and the AUCO-inf [4] was 723.90 ng·h/mL and 1362.29 ng·h/mL and 1267.06 ng·h/mL and 788.16 ng·h/mL and 3042.77 ng·h/mL and 792.54 ng·h/mL. The AUCO-t [4] was 635.82 ng·h/mL and 757.71 ng·h/mL and 996.95 ng·h/mL and 716.57 ng·h/mL and 1606.43 ng·h/mL and 761.59 ng·h/mL, the CL/F [4] was 138140.40 mL/h and 73405.78 mL/h and 78922.85 mL/h and 126877.64 mL/h and 32864.80 mL/h and 126176.85 mL/h and the Cmax [4] was 22.66 ng/mL and 24.41 ng/mL and 30.05 ng/mL and 25.98 ng/mL and 43.57 ng/mL and 34.67 ng/mL. The Kel [4] was 0.03 1/hr and 0.01 1/hr (2×) and 0.02 1/hr and 0.04 1/hr and 0.05 1/hr, the Tmax [4] was 6.00 h and the T½ [4] was 22.60 h and 47.37 h and 31.94 h and 19.37 h and 55.13 h and 14.42 h. For the same compound, the V/F [4] was 4503070.74 mL and 5016960.70 mL and 3637239.70 mL and 3545589.51 mL and 2613781.85 mL and 2624477.13 mL, the “% AUCexp” value [5] was 13.76% and the AUCO-inf [5] was 1040.21 ng·h/mL. For the same compound, the AUCO-t [5] was 822.65 ng·h/mL, the CL/F [5] was 192268.01 mL/h and the Cmax [5] was 28.66 ng/mL. The Kel [5] was 0.03 h⁻¹, the Tmax [5] was 6.29 h and the T½ [5] was 25.39 h. The V/F [5] was 7043125.41 mL, the “% AUCexp” value [6] was 19.01% and the AUCO-inf [6] was 1066.59 ng·h/mL. It also gave an AUCO-t [6] of 856.21 ng·h/mL, a CL/F [6] of 197223.58 mL/h and a Cmax [6] of 29.70 ng/mL. It also gave a Kel [6] of 0.03 h⁻¹, a Tmax [6] of 6.33 h and a T½ [6] of 29.35 h. For the same compound, the V/F [6] was 8022007.31 mL, the “% AUCexp” value [7] was 15.83% and the AUCO-inf [7] was 1061.32 ng·h/mL. It also gave an AUCO-t [7] of 804.02 ng·h/mL, a CL/F [7] of 189651.36 mL/h and a Cmax [7] of 28.62 ng/mL. It also gave a Kel [7] of 0.03 h⁻¹, a Tmax [7] of 6.00 h and a T½ [7] of 24.59 h. The V/F [7] was 7174305.73 mL, the “% AUCexp” value [8] was 51.97% and 15.07% and 6.50% and 16.58% and 4.05% and 19.85% and the AUCO-inf [8] was 1241.16 ng·h/mL and 1146.01 ng·h/mL and 1438.52 ng·h/mL and 737.08 ng·h/mL and 860.11 ng·h/mL and 976.64 ng·h/mL. The AUCO-t [8] was 596.14 ng·h/mL and 973.27 ng·h/mL and 1344.94 ng·h/mL and 614.86 ng·h/mL and 825.30 ng·h/mL and 782.74 ng·h/mL, the CL/F [8] was 161138.94 mL/h and 174518.59 mL/h and 139032.26 mL/h and 271340.46 mL/h and 232527.11 mL/h and 204784.12 mL/h and the Cmax [8] was 18.77 ng/mL and 27.35 ng/mL and 42.46 ng/mL and 23.41 ng/mL and 36.31 ng/mL and 29.90 ng/mL. The Kel [8] was 0.01 1/hr and 0.03 1/hr (3×) and 0.05 1/hr (2×), the Tmax [8] was 6.00 h and 8.00 h and the T½ [8] was 68.82 h and 24.69 h and 15.32 h and 24.50 h and 15.26 h and 27.53 h. For the same compound, the V/F [8] was 15999011.64 mL and 6215853.68 mL and 3073693.76 mL and 9591266.45 mL and 5119460.58 mL and 8132757.78 mL, the “% AUCexp” value [9] was 25.23% and the AUCO-inf [9] was 1799.36 ng·h/mL. For the same compound, the AUCO-t [9] was 1045.59 ng·h/mL, the CL/F [9] was 222300.98 mL/h and the Cmax [9] was 28.16 ng/mL. For the same compound, the Kel [9] was 0.02 h⁻¹, the Tmax [9] was 7.11 h and the T½ [9] was 42.43 h. The V/F [9] was 13606337.94 mL, the “% AUCexp” value [10] was 36.21% and the AUCO-inf [10] was 2494.19 ng·h/mL. For the same compound, the AUCO-t [10] was 1148.77 ng·h/mL, the CL/F [10] was 300584.11 mL/h and the Cmax [10] was 29.04 ng/mL. The Kel [10] was 0.02 h⁻¹, the Tmax [10] was 7.33 h and the T½ [10] was 57.04 h. For the same compound, the V/F [10] was 15172419.27 mL, the “% AUCexp” value [11] was 33.41% and the AUCO-inf [11] was 2029.33 ng·h/mL. For the same compound, the AUCO-t [11] was 1089.21 ng·h/mL, the CL/F [11] was 197696.44 mL/h and the Cmax [11] was 28.44 ng/mL. The Kel [11] was 0.02 h⁻¹, the Tmax [11] was 6.00 h and the T½ [11] was 39.03 h. For the same compound, the V/F [11] was 12667205.14 mL, the “% AUCexp” value [12] was 73.99% and 4.55% and 35.27% and 11.36% and 31.55% and 60.51% and the AUCO-inf [12] was 7138.99 ng·h/mL and 981.05 ng·h/mL and 1918.71 ng·h/mL and 520.98 ng·h/mL and 2265.43 ng·h/mL and 2139.96 ng·h/mL. For the same compound, the AUCO-t [12] was 1856.79 ng·h/mL and 936.40 ng·h/mL and 1242.03 ng·h/mL and 461.79 ng·h/mL and 1550.60 ng·h/mL and 845.03 ng·h/mL, the CL/F [12] was 56030.30 mL/h and 407726.35 mL/h and 208473.83 mL/h and 767787.87 mL/h and 176567.28 mL/h and 186919.05 mL/h and the Cmax [12] was 41.12 ng/mL and 26.38 ng/mL and 30.49 ng/mL and 21.86 ng/mL and 34.26 ng/mL and 20.15 ng/mL. For the same compound, the Kel [12] was 0.00 1/hr and 0.05 1/hr and 0.02 1/hr (2×) and 0.03 1/hr and 0.01 1/hr, the Tmax [12] was 10.00 h and 6.00 h and the T½ [12] was 142.05 h and 13.66 h and 46.06 h and 24.18 h and 32.01 h and 84.28 h. For the same compound, the V/F [12] was 11482617.37 mL and 8037364.81 mL and 13851792.91 mL and 26779550.10 mL and 8154849.30 mL and 22728341.15 mL.
